≈ marks a conversion by molar mass, not a printed value. Bridge positions count the residues as written; N and C are the ends. Square brackets hold non-standard residues; d marks the D form. Peptide text beside a SMILES is read from it. * marks the point of attachment. X1 = CC[C@H](C)CCCCC(=O)*; Dab = NCC[C@H](N)C(=O)O
Legend:
Type in all cases: functional
[1] = system: Pseudomonas aeruginosa; assay: Antibacterial activity against carbapenem-resistant Pseudomonas aeruginosa clinical isolate ets83 assessed as inhibition of bacterial growth incubated for 24 hrs by CLSI protocol based broth microdilution method
[2] = system: Acinetobacter baumannii; assay: Antibacterial activity against carbapenem-resistant Acinetobacter baumannii clinical isolate ets30 assessed as inhibition of bacterial growth incubated for 24 hrs by CLSI protocol based broth microdilution method
[3] = system: Klebsiella pneumoniae; assay: Antibacterial activity against carbapenem-resistant Klebsiella pneumoniae clinical isolate ets74 assessed as inhibition of bacterial growth incubated for 24 hrs by CLSI protocol based broth microdilution method
[4] = system: Acinetobacter baumannii; assay: Antibacterial activity against carbapenem-resistant Acinetobacter baumannii clinical isolate ets178 assessed as inhibition of bacterial growth incubated for 24 hrs by CLSI protocol based broth microdilution method
[5] = system: Klebsiella pneumoniae; assay: Antibacterial activity against carbapenem-resistant Klebsiella pneumoniae clinical isolate ets26 assessed as inhibition of bacterial growth incubated for 24 hrs by CLSI protocol based broth microdilution method
[6] = system: Klebsiella pneumoniae; assay: Antibacterial activity against carbapenem-resistant Klebsiella pneumoniae ATCC BAA-1705 assessed as inhibition of bacterial growth incubated for 16 to 20 hrs by CLSI protocol based broth microdilution method; conditions: time 16-20 hrs
[7] = system: Pseudomonas aeruginosa; assay: Antibacterial activity against carbapenem-resistant Pseudomonas aeruginosa clinical isolate ets22 assessed as inhibition of bacterial growth incubated for 24 hrs by CLSI protocol based broth microdilution method
[8] = system: Klebsiella pneumoniae; assay: Antibacterial activity against carbapenem-resistant Klebsiella pneumoniae clinical isolate ets80 assessed as inhibition of bacterial growth incubated for 24 hrs by CLSI protocol based broth microdilution method
[9] = system: Pseudomonas aeruginosa; assay: Antibacterial activity against Pseudomonas aeruginosa ATCC 27853 infected in ICR mouse model infected in ICR mouse model assessed as survival rate at 2 mg/kg, iv administered at 1 and 6 hrs post-infection and measured after 7 days relative to control; conditions: ATCC 27853, 168 h, time 7 day
[10] = system: Pseudomonas aeruginosa; assay: Antibacterial activity against carbapenem-resistant Pseudomonas aeruginosa clinical isolate ets33 assessed as inhibition of bacterial growth incubated for 24 hrs by CLSI protocol based broth microdilution method
[11] = system: Acinetobacter baumannii; assay: Antibacterial activity against carbapenem-resistant Acinetobacter baumannii clinical isolate ets171 assessed as inhibition of bacterial growth incubated for 24 hrs by CLSI protocol based broth microdilution method
[12] = system: Klebsiella pneumoniae; assay: Antibacterial activity against carbapenem-resistant Klebsiella pneumoniae clinical isolate ets77 assessed as inhibition of bacterial growth incubated for 24 hrs by CLSI protocol based broth microdilution method
[13] = system: Pseudomonas aeruginosa; assay: Antibacterial activity against carbapenem-resistant Pseudomonas aeruginosa clinical isolate ets15 assessed as inhibition of bacterial growth incubated for 24 hrs by CLSI protocol based broth microdilution method
[14] = system: Escherichia coli; assay: Antibacterial activity against carbapenem-resistant Escherichia coli clinical isolate 231109W005 assessed as inhibition of bacterial growth incubated for 24 hrs by CLSI protocol based broth microdilution method
[15] = system: Pseudomonas aeruginosa; assay: Antibacterial activity against carbapenem-resistant Pseudomonas aeruginosa clinical isolate ets6 assessed as inhibition of bacterial growth incubated for 24 hrs by CLSI protocol based broth microdilution method
[16] = system: Klebsiella pneumoniae; assay: Antibacterial activity against carbapenem-resistant Klebsiella pneumoniae clinical isolate KPN+19-15 infected in ICR mouse model administered intravenously with compound at 1 and 6 hrs post-infection and measured after 7 days; conditions: 168 h, route iv, time 7 day
[17] = system: Escherichia coli; assay: Antibacterial activity against carbapenem-resistant Escherichia coli ATCC BAA-2340 assessed as inhibition of bacterial growth incubated for 16 to 20 hrs by CLSI protocol based broth microdilution method; conditions: time 16-20 hrs
[18] = system: Pseudomonas aeruginosa; assay: Antibacterial activity against carbapenem-resistant Pseudomonas aeruginosa clinical isolate ets49 assessed as inhibition of bacterial growth incubated for 24 hrs by CLSI protocol based broth microdilution method
[19] = system: Klebsiella pneumoniae; assay: Antibacterial activity against carbapenem-resistant Klebsiella pneumoniae clinical isolate ets78 assessed as inhibition of bacterial growth incubated for 24 hrs by CLSI protocol based broth microdilution method
[20] = system: Pseudomonas aeruginosa; assay: Antibacterial activity against Pseudomonas aeruginosa ATCC 27853 assessed as inhibition of bacterial growth incubated for 16 to 20 hrs by CLSI protocol based broth microdilution method; conditions: time 16-20 hrs
[21] = system: Acinetobacter baumannii; assay: Antibacterial activity against Acinetobacter baumannii NCTC 13304 (OXA-27) assessed as inhibition of bacterial growth incubated for 16 to 20 hrs by CLSI protocol based broth microdilution method; conditions: time 16-20 hrs
[22] = system: Acinetobacter baumannii; assay: Antibacterial activity against carbapenem-resistant Acinetobacter baumannii clinical isolate ets104 assessed as inhibition of bacterial growth incubated for 24 hrs by CLSI protocol based broth microdilution method
[23] = system: Pseudomonas aeruginosa; assay: Antibacterial activity against carbapenem-resistant Pseudomonas aeruginosa clinical isolate ets85 assessed as inhibition of bacterial growth incubated for 24 hrs by CLSI protocol based broth microdilution method
[24] = system: Pseudomonas aeruginosa; assay: Antibacterial activity against carbapenem-resistant Pseudomonas aeruginosa clinical isolate ets55 assessed as inhibition of bacterial growth incubated for 24 hrs by CLSI protocol based broth microdilution method
[25] = system: Klebsiella pneumoniae; assay: Antibacterial activity against carbapenem-resistant Klebsiella pneumoniae clinical isolate ets75 assessed as inhibition of bacterial growth incubated for 24 hrs by CLSI protocol based broth microdilution method
[26] = system: Acinetobacter baumannii; assay: Antibacterial activity against carbapenem-resistant Acinetobacter baumannii clinical isolate ets123 assessed as inhibition of bacterial growth incubated for 24 hrs by CLSI protocol based broth microdilution method
[27] = system: Escherichia coli; assay: Antibacterial activity against carbapenem-resistant Escherichia coli clinical isolate 231112E006B assessed as inhibition of bacterial growth incubated for 24 hrs by CLSI protocol based broth microdilution method
[28] = system: Pseudomonas aeruginosa; assay: Antibacterial activity against carbapenem-resistant Pseudomonas aeruginosa clinical isolate ets104 assessed as inhibition of bacterial growth incubated for 24 hrs by CLSI protocol based broth microdilution method
[29] = system: Klebsiella pneumoniae; assay: Antibacterial activity against carbapenem-resistant Klebsiella pneumoniae clinical isolate ets40 assessed as inhibition of bacterial growth incubated for 24 hrs by CLSI protocol based broth microdilution method
[30] = system: Pseudomonas aeruginosa; assay: Antibacterial activity against carbapenem-resistant Pseudomonas aeruginosa clinical isolate 19-3 assessed as inhibition of bacterial growth incubated for 16 to 20 hrs by CLSI protocol based broth microdilution method; conditions: time 16-20 hrs
[31] = system: Klebsiella pneumoniae; assay: Antibacterial activity against carbapenem-resistant Klebsiella pneumoniae clinical isolate KPN+19-15 assessed as inhibition of bacterial growth incubated for 16 to 20 hrs by CLSI protocol based broth microdilution method; conditions: time 16-20 hrs
[32] = system: Escherichia coli; assay: Antibacterial activity against carbapenem-resistant Escherichia coli clinical isolate 231016w014 assessed as inhibition of bacterial growth incubated for 24 hrs by CLSI protocol based broth microdilution method
[33] = system: Acinetobacter baumannii; assay: Antibacterial activity against carbapenem-sensitive Acinetobacter baumannii clinical isolate 19-1 assessed as inhibition of bacterial growth incubated for 16 to 20 hrs by CLSI protocol based broth microdilution method; conditions: time 16-20 hrs
[34] = system: Pseudomonas aeruginosa; assay: Antibacterial activity against carbapenem-resistant Pseudomonas aeruginosa clinical isolate ets84 assessed as inhibition of bacterial growth incubated for 24 hrs by CLSI protocol based broth microdilution method
[35] = system: Pseudomonas aeruginosa; assay: Antibacterial activity against carbapenem-resistant Pseudomonas aeruginosa clinical isolate ets38 assessed as inhibition of bacterial growth incubated for 24 hrs by CLSI protocol based broth microdilution method
[36] = system: Escherichia coli; assay: Antibacterial activity against Escherichia coli ATCC BAA-2523 assessed as inhibition of bacterial growth incubated for 16 to 20 hrs by CLSI protocol based broth microdilution method; conditions: time 16-20 hrs
[37] = system: Klebsiella pneumoniae; assay: Antibacterial activity against carbapenem-resistant Klebsiella pneumoniae clinical isolate KPN+19-15 infected in ICR mouse model assessed as survival rate at 4 mg/kg, iv administered at 1 and 6 hrs post-infection and measured after 7 days relative to control; conditions: 168 h, time 7 day
[38] = system: Klebsiella pneumoniae; assay: Antibacterial activity against carbapenem-resistant Klebsiella pneumoniae clinical isolate ets45 assessed as inhibition of bacterial growth incubated for 24 hrs by CLSI protocol based broth microdilution method
[39] = system: Pseudomonas aeruginosa; assay: Antibacterial activity against carbapenem-resistant Pseudomonas aeruginosa clinical isolate ets5 assessed as inhibition of bacterial growth incubated for 24 hrs by CLSI protocol based broth microdilution method
[40] = system: Pseudomonas aeruginosa; assay: Antibacterial activity against Pseudomonas aeruginosa ATCC 27853 assessed as inhibition of bacterial growth incubated 24 hrs by cation adjusted Mueller-Hinton broth based method

In the case of `CC(C)CCCCC(=O)N[C@@H](CCN)C(=O)N[C@H](C(=O)N[C@@H](CCN)C(=O)N[C@H]1CCNC(=O)[C@H]([C@@H](C)O)NC(=O)[C@H](CCN)NC(=O)[C@H](CCN)NC(=O)[C@H](CC(C)C)NC(=O)[C@@H](Cc2ccccc2)NC(=O)[C@H](CCN)NC1=O)[C@@H](C)O.CC[C@H](C)CCCCC(=O)N[C@@H](CCN)C(=O)N[C@H](C(=O)N[C@@H](CCN)C(=O)N[C@H]1CCNC(=O)[C@H]([C@@H](C)O)NC(=O)[C@H](CCN)NC(=O)[C@H](CCN)NC(=O)[C@H](CC(C)C)NC(=O)[C@@H](Cc2ccccc2)NC(=O)[C@H](CCN)NC1=O)[C@@H](C)O` (X1-[Dab]T[Dab][Dab][Dab][dF]L[Dab][Dab]T; lactam 4-C), the MIC [1] was 1 µg/mL, the MIC [2] was 1 µg/mL and the MIC [3] was 1 µg/mL. For the same compound, the MIC [4] was 2 µg/mL, the MIC [5] was 2 µg/mL and the MIC [6] was 0.125 µg/mL. For the same compound, the MIC [7] was 4 µg/mL, the MIC [8] was 1 µg/mL and the survival at 2 mg/kg [9] was 37.5%. The MIC [10] was 4 µg/mL, the MIC [11] was 2 µg/mL and the MIC [12] was 1 µg/mL. It also gave an MIC [13] of 1 µg/mL, an MIC [14] of under 0.06 µg/mL and an MIC [15] of 2 µg/mL. For the same compound, the ED50 [16] was 2.7 mg/kg, the MIC [17] was at most 0.03 µg/mL and the MIC [18] was 4 µg/mL. It also gave an MIC [19] of 0.5 µg/mL, an MIC [20] of 0.25 µg/mL and an MIC [21] of 0.06 µg/mL. For the same compound, the MIC [22] was 0.125 µg/mL, the MIC [23] was 4 µg/mL and the MIC [24] was 4 µg/mL. The MIC [25] was 1 µg/mL, the MIC [26] was 1 µg/mL and the MIC [27] was under 0.06 µg/mL. For the same compound, the MIC [28] was 4 µg/mL, the MIC [29] was 1 µg/mL and the MIC [30] was 0.25 µg/mL. It also gave an MIC [31] of 0.125 µg/mL, an MIC [32] of under 0.06 µg/mL and an MIC [33] of 0.25 µg/mL. The MIC [34] was 0.5 µg/mL, the MIC [35] was 4 µg/mL and the MIC [36] was at most 0.03 µg/mL. For the same compound, the survival at 4 mg/kg [37] was 62.5%, the MIC [38] was 2 µg/mL and the MIC [39] was 2 µg/mL.
`CO[C@H]1/C=C/O[C@@]2(C)Oc3c(C)c(O)c4c(O)c(c(/C=N/N5CCN(C)CC5)c(O)c4c3C2=O)NC(=O)/C(C)=C\C=C\[C@H](C)[C@H](O)[C@@H](C)[C@@H](O)[C@@H](C)[C@H](OC(C)=O)[C@@H]1C` [RIFAMPIN] gave an MIC [40] of 32 µg/mL (≈ 38.9 µM).

— ChEMBL document CHEMBL6078630, “Design, synthesis, and bioactivity investigation of novel cyclic lipopeptide antibiotics targeting top-priority multidrug-resistant gram-negative bacteria” (Eur J Med Chem, 2024)
